Patent publication US20040067955A1, “Pyridazinone compound and pharmaceutical use thereof” (Fujisawa Pharmaceutical Co. Ltd., priority 2002, published 2004)

Key:
human A1 receptor = target: T1, human A1 receptor (Homo sapiens, UniProt P30542); assay: Adenosine antagonistic activity: radioligand binding with [3H]DPCPX (4.5 nM)
T1 sequence (P30542 1-326): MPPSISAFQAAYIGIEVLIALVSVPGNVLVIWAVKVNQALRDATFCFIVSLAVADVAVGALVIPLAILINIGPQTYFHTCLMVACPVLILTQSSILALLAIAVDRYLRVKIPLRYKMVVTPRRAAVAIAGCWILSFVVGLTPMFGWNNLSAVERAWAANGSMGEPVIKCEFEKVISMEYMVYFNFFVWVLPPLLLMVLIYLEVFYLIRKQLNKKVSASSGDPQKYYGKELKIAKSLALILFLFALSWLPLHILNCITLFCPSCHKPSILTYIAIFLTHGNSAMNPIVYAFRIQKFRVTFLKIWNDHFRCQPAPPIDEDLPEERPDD
Protocol: (§1) The adenosine antagonistic activity [Ki(nM)] of the test compound was examined by radioligand binding techniques using 8-cyclopentyl-1,3-dipropylxanthine, [dipropyl-2,3-^3H (N)] ([^3H]DPCPX, 4.5 nM) for human A1 receptor and [^3H]CGS 21680 (20 nM) for human A2a receptor.

human A2a receptor = human A2a receptor (Homo sapiens, UniProt P29274); assay: Adenosine antagonistic activity: radioligand binding with [3H]CGS 21680 (20 nM)
human A2a receptor, sequence (P29274 whole entry): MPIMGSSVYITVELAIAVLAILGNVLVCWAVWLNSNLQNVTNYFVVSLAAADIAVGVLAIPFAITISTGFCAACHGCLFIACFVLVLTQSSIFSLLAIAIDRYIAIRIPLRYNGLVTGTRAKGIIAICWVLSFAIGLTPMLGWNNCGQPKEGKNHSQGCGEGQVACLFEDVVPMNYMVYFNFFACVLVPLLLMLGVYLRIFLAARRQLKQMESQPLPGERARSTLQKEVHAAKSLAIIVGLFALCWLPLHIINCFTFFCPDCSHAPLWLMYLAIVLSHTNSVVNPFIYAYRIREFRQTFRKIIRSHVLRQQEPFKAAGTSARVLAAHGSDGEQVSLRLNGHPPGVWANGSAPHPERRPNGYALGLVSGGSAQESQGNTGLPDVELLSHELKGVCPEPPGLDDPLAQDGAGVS
Protocol: as §1

ddY mice = assay: Anticatalepsy activity in mouse (haloperidol-induced catalepsy, bar test); assay type: in vivo; details: test compound 3.2 mg/kg orally, ddY mice (n=7); haloperidol 0.32 mg/kg i.p. 30 min later; measured 30 min after injection
Protocol: The test compound (3.2 mg/kg) was administered orally with ddY mice (n=7). Then, haloperidol (0.32 mg/kg) was injected intraperitoneally 30 min. after the administration of the compound. Thirty min. After the injection, the cataleptic responses of mice were measured. The forelimbs of each mouse were placed on a 3 cm high, 3 mm wide horizontal bar, and the duration of cataleptic posture was measured for up to 30 sec.

Row | Structure (SMILES) | Ki (human A1 receptor) [nM] | Ki (human A2a receptor) [nM] | Manifestation rate of catalepsy (number of mouse) (ddY mice) | melting point [°C]
1 | CC(C)n1nc(-c2cc(-c3ccn[nH]3)cnc2-c2ccccc2)ccc1=O [Example 24, 2-isopropyl-6-[2-phenyl-5-(pyrazol-5-yl)-3-pyridyl]-3(2H)-pyridazinone] | 0.46 | 2.7 | 0/7 | 212 to 213
2 | CC(C)n1nc(-c2cc(NC(=O)c3ccccc3)cnc2-c2ccccc2)ccc1=O [Example 27, N-[5-(1-isopropyl-6-oxo-1,6-dihydro-3-pyridazinyl)-6-phenyl-3-pyridyl]benzamide] | 0.31 | 1.24 | 0/7 | 207 to 208
3 | CC(C)n1cc(-c2cc(Cl)c(N)nc2-c2ccccc2)cc(Cl)c1=O [Example 119, 6′-Amino-5,5′-dichloro-1-isopropyl-2′-phenyl-3,3′-bipyridin-6(1H)-one] | 1.99 | 2.06 | 0/7 | –
4 | CC(C)n1nc(-c2cc(C#N)c(N)nc2-c2ccccc2)ccc1=O [Example 3, 2-Amino-5-(1-isopropyl-6-oxo-1,6-dihydro-3-pyridazinyl)-6-phenylnicotinonitrile] | 0.56 | 0.65 | 0/7 | 197 to 198
